The record followed here is patent publication US20240199624A1, “COMPOUNDS, COMPOSITIONS, AND METHODS” (CHDI Foundation, Inc., priority 2022, published 2024).

The assay has as its target T1, human MutSbeta (Homo sapiens, UniProt P20585+P43246).
T1 construct: Msh2(1-934), Gene ID NP_000242.1; Msh3(1-1137), Gene ID J04810.1
The experiment in a line: P33 SPA 1.1. To be noted: Table 5A; enzyme first added to compounds, then ATP. Format: biochemical. The procedure:
P33 SPA: Enzyme human MutSbeta (Msh2(1-934), Gene ID NP_000242.1, Msh3(1-1137), Gene ID J04810.1) and 22 bp biotin-labeled DNA containing a GT-mismatch (purchased from Curia Global, TOP 5′-[…]-3′; BOT 3′-AGTAGCTAGGC - - - CGAAGTCTACC-5′-Biotin) were pre-incubated at equimolar concentration for 15 min at room temperature (“RT”) in assay buffer (25 mM HEPES pH=7.5, 150 mM KCl, 2 mM MgCl2, 2 mM GSH, 0.01% Tween-20). ATP (10 μL, 2× final concentration of γ-[^33P]-ATP (final 0.1 nM; Hartmann Analytic, FF-301) and cold ATP (final 2 μM)) was added to compounds (400 nL spotted as concentration response in 100% DMSO into wells of an OptiPlate) and pre-incubated for 30 min at RT. Then, enzyme with DNA was added (10 μL, 2× final concentration of 7 nM) and incubated for 60 min at 37° C. in a total volume of 20 μL per well. Decay of [^33P] with a half-life of 25.4 days was corrected by increasing the concentration of the labelled nucleotide with the appropriate factor; all steps with radioactive ATP were conducted behind appropriate shielding. Then, 20 μL of a 1:2 mix of ammonium molybdate (20 mg/mL Ammonium molybdate in 2.4 M HCl) and SPA beads (ProteinA SPA beads from Perkin Elmer Cat #RPNQ0019 at 7.5 mg/mL+1% azide) was added per well and incubated at RT for 2 min. Then, 40 μL of 7 M CsCl and 0.1 M citrate was added per well and incubated for 20 h at RT before measuring on the MicroBeta (top read mode, 1 min per well). For full plate processing, all reagents were transferred with a pipettor (Selma, CyBio) apart from the final reagent (CsCl+citrate) which was added with a dispenser (MultiFlo, BioTek). Data analysis during assay development was done with Prism GraphPad.
P33 SPA 11: For the SPA 1.1 assay, the addition of reagents was reversed, i.e. enzyme was first added to the compounds and pre-incubated followed by ATP addition; thus, the assay was aligned with ADP Glo 1.1 reagent addition order. The assay was repeated under similar conditions, and the results are shown below in Table 5B. It is contemplated the solubility of the compounds and/or varying test occasions may account for variability of assay results.

T1 sequence (P43246 whole entry): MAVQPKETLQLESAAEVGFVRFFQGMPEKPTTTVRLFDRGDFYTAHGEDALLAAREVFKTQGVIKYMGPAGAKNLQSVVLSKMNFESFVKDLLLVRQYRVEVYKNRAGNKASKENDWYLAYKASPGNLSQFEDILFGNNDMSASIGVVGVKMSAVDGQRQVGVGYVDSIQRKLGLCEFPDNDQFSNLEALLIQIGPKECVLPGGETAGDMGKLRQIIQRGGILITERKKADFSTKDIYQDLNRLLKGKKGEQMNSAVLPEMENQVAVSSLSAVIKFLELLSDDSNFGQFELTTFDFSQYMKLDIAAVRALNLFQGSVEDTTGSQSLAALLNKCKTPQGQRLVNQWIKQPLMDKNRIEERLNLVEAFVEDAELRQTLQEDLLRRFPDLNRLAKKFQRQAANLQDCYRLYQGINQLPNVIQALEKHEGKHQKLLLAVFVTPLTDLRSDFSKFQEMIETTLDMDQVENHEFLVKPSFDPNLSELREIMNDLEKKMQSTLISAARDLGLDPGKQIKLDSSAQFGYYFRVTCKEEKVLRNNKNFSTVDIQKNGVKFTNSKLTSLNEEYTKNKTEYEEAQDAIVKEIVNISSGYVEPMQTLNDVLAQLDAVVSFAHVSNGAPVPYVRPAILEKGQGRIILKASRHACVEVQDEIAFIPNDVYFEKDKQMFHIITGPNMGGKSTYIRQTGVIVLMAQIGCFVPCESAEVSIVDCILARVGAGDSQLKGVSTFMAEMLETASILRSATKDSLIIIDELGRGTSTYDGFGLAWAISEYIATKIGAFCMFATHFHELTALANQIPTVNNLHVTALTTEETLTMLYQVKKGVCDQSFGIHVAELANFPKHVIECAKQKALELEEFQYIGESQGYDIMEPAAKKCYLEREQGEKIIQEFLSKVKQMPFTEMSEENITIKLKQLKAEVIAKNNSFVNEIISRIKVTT
T1 sequence (P20585 whole entry): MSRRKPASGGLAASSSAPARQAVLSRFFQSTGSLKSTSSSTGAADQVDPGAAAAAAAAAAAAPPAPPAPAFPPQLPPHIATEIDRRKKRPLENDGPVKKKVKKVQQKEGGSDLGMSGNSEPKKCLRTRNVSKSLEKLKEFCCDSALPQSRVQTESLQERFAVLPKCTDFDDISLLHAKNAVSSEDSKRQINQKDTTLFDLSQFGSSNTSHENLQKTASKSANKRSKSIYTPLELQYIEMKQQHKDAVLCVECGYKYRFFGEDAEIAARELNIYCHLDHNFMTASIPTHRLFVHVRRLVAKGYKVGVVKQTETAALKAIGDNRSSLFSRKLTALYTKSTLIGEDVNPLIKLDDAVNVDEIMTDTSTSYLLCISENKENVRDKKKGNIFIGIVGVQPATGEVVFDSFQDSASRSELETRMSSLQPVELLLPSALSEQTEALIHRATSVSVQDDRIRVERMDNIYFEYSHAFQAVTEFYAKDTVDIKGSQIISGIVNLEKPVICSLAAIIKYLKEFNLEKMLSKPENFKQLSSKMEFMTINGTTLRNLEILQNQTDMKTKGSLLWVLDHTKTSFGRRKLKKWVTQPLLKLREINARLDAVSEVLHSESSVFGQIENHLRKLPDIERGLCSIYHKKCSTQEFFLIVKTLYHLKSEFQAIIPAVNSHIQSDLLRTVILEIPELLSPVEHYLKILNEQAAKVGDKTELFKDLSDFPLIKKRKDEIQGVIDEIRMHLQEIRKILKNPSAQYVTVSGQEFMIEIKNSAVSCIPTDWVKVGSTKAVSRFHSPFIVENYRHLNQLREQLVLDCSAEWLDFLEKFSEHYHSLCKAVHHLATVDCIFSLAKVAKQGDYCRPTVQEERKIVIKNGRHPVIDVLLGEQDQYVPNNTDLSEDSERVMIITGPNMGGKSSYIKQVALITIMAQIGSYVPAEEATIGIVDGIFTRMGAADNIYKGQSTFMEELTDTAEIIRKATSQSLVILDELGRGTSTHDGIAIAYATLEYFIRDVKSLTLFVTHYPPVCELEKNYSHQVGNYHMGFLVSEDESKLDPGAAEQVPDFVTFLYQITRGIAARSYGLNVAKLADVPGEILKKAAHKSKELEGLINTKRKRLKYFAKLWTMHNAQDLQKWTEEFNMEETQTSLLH

With `Cc1ccc(Nc2nc(N3CCN(C)CC3)nc3nccnc23)cc1C` [Compound 2, N-(3,4-dimethylphenyl)-2-(4-methylpiperazin-1-yl)pteridin-4-amine], the IC50 (usually the point on the concentration scale where inhibition reaches its midpoint) turned out to be 55.9 µM.

Take `CCN1CCN(c2nc(Nc3ccc(Cl)cc3)c3nccnc3n2)CC1` [Compound 4, N-(4-Chlorophenyl)-2-(4-ethylpiperazin-1-yl)pteridin-4-amine]: the IC50 was found to be 40.5 µM.
